# Results published in patent publication US20170197979A1, “BENZOTHIADIAZOLAMINES” (BAYER PHARMA AKTIENGESELLSCHAFT, priority 2014, published 2017).
# Target: T1, human full-length MKNK1 (Homo sapiens, UniProt Q9BUB5, T385D)
# T1 construct: GST (N); purchased Carna Biosciences 02-145; host or cells: insect cells (baculovirus expression system)
# Assay: MKNK1 kinase high ATP assay (TR-FRET)
# Format: biochemical
# Details: TR-FRET, high ATP (2 mM final), 15 min preincubation with enzyme, GST-MKNK1 (T344D); read-out: MKNK1 IC50
# Procedure: MKNK1 Kinase High ATP Assay
# MKNK1-inhibitory activity at high ATP of compounds of the present invention after their preincubation with MKNK1 was quantified employing the TR-FRET-based MKNK1 high ATP assay as described in the following paragraphs.
# A recombinant fusion protein of Glutathione-S-Transferase (GST, N-terminally) and human full-length MKNK1 (amino acids 1-424 and T344D of accession number BAA 19885.1), expressed in insect cells using baculovirus expression system and purified via glutathione sepharose affinity chromatography, was purchased from Carna Biosciences (product no 02-145) and used as enzyme. As substrate for the kinase reaction the biotinylated peptide biotin-Ahx-IKKRKLTRRKSLKG (C-terminus in amide form) was used, which can be purchased e.g. from the company Biosyntan (Berlin-Buch, Germany).
# For the assay 50 nL of a 100 fold concentrated solution of the test compound in DMSO was pipetted into a black low volume 384 well microtiter plate (Greiner Bio-One, Frickenhausen, Germany), 2 μL of a solution of MKNK1 in aqueous assay buffer [50 mM HEPES pH 7.5, 5 mM MgCl2, 1.0 mM dithiothreitol, 0.005% (v/v) Nonidet-P40 (Sigma)] was added and the mixture was incubated for 15 min at 22° C. to allow pre-binding of the test compounds to the enzyme before the start of the kinase reaction. Then the kinase reaction was started by the addition of 3 μL of a solution of adenosine-tri-phosphate (ATP, 3.3 mM=>final conc. in the 5 μL assay volume is 2 mM) and substrate (0.1 μM=>final conc. in the 5 μL assay volume is 0.06 μM) in assay buffer and the resulting mixture was incubated for a reaction time of 30 min at 22° C. The concentration of MKNK1 was adjusted depending of the activity of the enzyme lot and was chosen appropriate to have the assay in the linear range, typical concentrations were in the range of 0.003 μg/mL. The reaction was stopped by the addition of 5 μL of a solution of TR-FRET detection reagents (5 nM streptavidine-XL665 [Cisbio Bioassays, Codolet, France] and 1 nM anti-ribosomal protein S6 (pSer236)-antibody from Invitrogen [#44921G] and 1 nM LANCE EU-W1024 labeled ProteinG [Perkin-Elmer, product no. AD0071]) in an aqueous EDTA-solution (100 mM EDTA, 0.1% (w/v) bovine serum albumin in 50 mM HEPES pH 7.5).
# The resulting mixture was incubated for 1 h at 22° C. to allow the formation of complex between the phosphorylated biotinylated peptide and the detection reagents. Subsequently the amount of phosphorylated substrate was evaluated by measurement of the resonance energy transfer from the Eu-chelate to the streptavidine-XL. Therefore, the fluorescence emissions at 620 nm and 665 nm after excitation at 350 nm were measured in a TR-FRET reader, e.g. a Rubystar (BMG Labtechnologies, Offenburg, Germany) or a Viewlux (Perkin-Elmer). The ratio of the emissions at 665 nm and at […] was taken as the measure for the amount of phosphorylated substrate. The data were normalised (enzyme reaction without inhibitor=0% inhibition, all other assay components but no enzyme=100% inhibition).
# T1 sequence (Q9BUB5 1-424 isoform Q9BUB5-2 T344D): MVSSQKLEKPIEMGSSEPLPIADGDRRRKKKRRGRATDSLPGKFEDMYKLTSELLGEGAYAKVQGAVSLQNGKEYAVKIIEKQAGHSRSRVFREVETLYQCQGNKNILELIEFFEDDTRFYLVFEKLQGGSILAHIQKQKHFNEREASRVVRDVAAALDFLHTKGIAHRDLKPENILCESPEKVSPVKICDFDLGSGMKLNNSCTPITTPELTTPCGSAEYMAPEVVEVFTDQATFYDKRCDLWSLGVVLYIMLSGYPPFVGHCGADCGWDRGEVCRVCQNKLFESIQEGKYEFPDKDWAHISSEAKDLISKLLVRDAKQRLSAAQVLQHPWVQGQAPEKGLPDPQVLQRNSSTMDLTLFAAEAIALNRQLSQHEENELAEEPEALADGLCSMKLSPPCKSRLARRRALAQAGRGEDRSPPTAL
row,SMILES,IC50 [nM]
1,"C[C@@H]1CN(C(=O)[C@H]2CCc3c(sc4ncnc(Nc5ccc6nnsc6c5)c34)C2)C[C@@H](C)O1 [Example 8, [(7S)-4-(1,2,3-Benzothiadiazol-6-ylamino)-5,6,7,8-tetrahydro[1]benzothieno[2,3-d]pyrimidin-7-yl][(2R,6R)-2,6-dimethylmorpholin-4-yl]methanone]",6.4
2,"CC(C)N(C)C(=O)[C@H]1CCc2c(sc3ncnc(Nc4ccc5nnsc5c4)c23)C1 [Example 23, (7S)-4-(1,2,3-Benzothiadiazol-6-ylamino)-N-methyl-N-(propan-2-yl)-5,6,7,8-tetrahydro[1]benzothieno[2,3-d]pyrimidine-7-carboxamide]",41
3,"COc1cc2nnsc2cc1Nc1ncnc2sc3c(c12)CC[C@H](C(=O)N1CCC(N(C)C)CC1)C3 [Example 47, [4-(Dimethylamino)piperidin-1-yl]{(7S)-4-[(5-methoxy-1,2,3-benzothiadiazol-6-yl)amino]-5,6,7,8-tetrahydro[1]benzothieno[2,3-d]pyrimidin-7-yl}methanone]",7.6
4,"COc1cc2nnsc2cc1Nc1ncnc2sc3c(c12)CC[C@H](C(=O)N1CC(N(C)C)C1)C3 [Example 41, [3-(Dimethylamino)azetidin-1-yl]{(7S)-4-[(5-methoxy-1,2,3-benzothiadiazol-6-yl)amino]-5,6,7,8-tetrahydro[1]benzothieno[2,3-d]pyrimidin-7-yl}methanone]",0.6
5,"COc1cc2nnsc2cc1Nc1ncnc2sc3c(c12)CC[C@H](C(=O)NCCC(F)(F)F)C3 [Example 56, (7S)-4-[(5-Methoxy-1,2,3-benzothiadiazol-6-yl)amino]-N-(3,3,3-trifluoropropyl)-5,6,7,8-tetrahydro[1]benzothieno[2,3-d]pyrimidine-7-carboxamide]",7.3
6,"CN1C[C@H]2C[C@@H]1CN2C(=O)[C@H]1CCc2c(sc3ncnc(Nc4ccc5nnsc5c4)c23)C1 [Example 59, [(7S)-4-(1,2,3-Benzothiadiazol-6-ylamino)-5,6,7,8-tetrahydro[1]benzothieno[2,3-d]pyrimidin-7-yl][(1R,4R)-5-methyl-2,5-diazabicyclo[2.2.1]hept-2-yl]methanone]",3.2
7,"O=C([C@H]1CCc2c(sc3ncnc(Nc4ccc5nnsc5c4)c23)C1)N1CC(O)C1 [Example 32, [(7S)-4-(1,2,3-Benzothiadiazol-6-ylamino)-5,6,7,8-tetrahydro[1]benzothieno[2,3-d]pyrimidin-7-yl](3-hydroxyazetidin-1-yl)methanone]",33
8,"COCCN(C)C(=O)[C@H]1CCc2c(sc3ncnc(Nc4ccc5nnsc5c4)c23)C1 [Example 2, (7S)-4-(1,2,3-Benzothiadiazol-6-ylamino)-N-(2-methoxyethyl)-N-methyl-5,6,7,8-tetrahydro[1]benzothieno[2,3-d]pyrimidine-7-carboxamide]",9.4
9,"COc1cc2nnsc2cc1Nc1ncnc2sc3c(c12)CC[C@H](C(=O)N1CC(N2CCCCC2)C1)C3 [Example 54, {(7S)-4-[(5-Methoxy-1,2,3-benzothiadiazol-6-yl)amino]-5,6,7,8-tetrahydro[1]benzothieno[2,3-d]pyrimidin-7-yl}[3-(piperidin-1-yl)azetidin-1-yl]methanone]",9.2
10,"COCCN(C)C(=O)[C@H]1CCc2c(sc3ncnc(Nc4cc5snnc5cc4OC)c23)C1 [Example 39, (7S)-4-[(5-Methoxy-1,2,3-benzothiadiazol-6-yl)amino]-N-(2-methoxyethyl)-N-methyl-5,6,7,8-tetrahydro[1]benzothieno[2,3-d]pyrimidine-7-carboxamide]",0.6
11,"COc1cc2nnsc2cc1Nc1ncnc2sc3c(c12)CC[C@H](C(=O)N1CCC(N(C)CCN(C)C)CC1)C3 [Example 48, (4-{[2-(dimethylamino)ethyl](methyl)amino}piperidin-1-yl){(7S)-4-[(5-methoxy-1,2,3-benzothiadiazol-6-yl)amino]-5,6,7,8-tetrahydro[1]benzothieno[2,3-d]pyrimidin-7-yl}methanone]",2
12,"COc1cc2nnsc2cc1Nc1ncnc2sc3c(c12)CC[C@H](C(=O)N(C)CC(C)(C)O)C3 [Example 36, (7S)—N-(2-Hydroxy-2-methylpropyl)-4-[(5-methoxy-1,2,3-benzothiadiazol-6-yl)amino]-N-methyl-5,6,7,8-tetrahydro[1]benzothieno[2,3-d]pyrimidine-7-carboxamide]",0.8
13,"CN(C)C1CCN(C(=O)[C@H]2CCc3c(sc4ncnc(Nc5ccc6nnsc6c5)c34)C2)CC1 [Example 15, [(7S)-4-(1,2,3-Benzothiadiazol-6-ylamino)-5,6,7,8-tetrahydro[1]benzothieno[2,3-d]pyrimidin-7-yl][4-(dimethylamino)piperidin-1-yl]methanone]",10
14,"CN(C(=O)[C@H]1CCc2c(sc3ncnc(Nc4ccc5nnsc5c4)c23)C1)S(C)(=O)=O [Example 11, (7S)-4-(1,2,3-Benzothiadiazol-6-ylamino)-N-methyl-N-(methylsulfonyl)-5,6,7,8-tetrahydro[1]benzothieno[2,3-d]pyrimidine-7-carboxamide]",12
15,"O=C([C@H]1CCc2c(sc3ncnc(Nc4ccc5nnsc5c4)c23)C1)N1CC(F)(F)C1 [Example 31, [(7S)-4-(1,2,3-Benzothiadiazol-6-ylamino)-5,6,7,8-tetrahydro[1]benzothieno[2,3-d]pyrimidin-7-yl](3,3-difluoroazetidin-1-yl)methanone]",14
16,"COc1cc2nnsc2cc1Nc1ncnc2sc3c(c12)CC[C@H](C(=O)N1C[C@H]2C[C@@H]1CN2C)C3 [Example 58, {(7S)-4-[(5-Methoxy-1,2,3-benzothiadiazol-6-yl)amino]-5,6,7,8-tetrahydro[1]benzothieno[2,3-d]pyrimidin-7-yl}[(1R,4R)-5-methyl-2,5-diazabicyclo[2.2.1]hept-2-yl]methanone]",1.9
17,"COc1cc2nnsc2cc1Nc1ncnc2sc3c(c12)CC[C@H](C(=O)N(C)CCCN(C)C)C3 [Example 43, (7S)—N-[3-(Dimethylamino)propyl]-4-[(5-methoxy-1,2,3-benzothiadiazol-6-yl)amino]-N-methyl-5,6,7,8-tetrahydro[1]benzothieno[2,3-d]pyrimidine-7-carboxamide]",1.7
18,"C[C@H]1COCCN1C(=O)[C@H]1CCc2c(sc3ncnc(Nc4ccc5nnsc5c4)c23)C1 [Example 5, [(7S)-4-(1,2,3-Benzothiadiazol-6-ylamino)-5,6,7,8-tetrahydro[1]benzothieno[2,3-d]pyrimidin-7-yl][(3S)-3-methylmorpholin-4-yl]methanone]",12
19,"CN(C)C1CN(C(=O)[C@H]2CCc3c(sc4ncnc(Nc5ccc6nnsc6c5)c34)C2)C1 [Example 14, [(7S)-4-(1,2,3-Benzothiadiazol-6-ylamino)-5,6,7,8-tetrahydro[1]benzothieno[2,3-d]pyrimidin-7-yl][3-(dimethylamino)azetidin-1-yl]methanone]",26
20,"CN(CCN)C(=O)[C@H]1CCc2c(sc3ncnc(Nc4ccc5nnsc5c4)c23)C1 [Example 25, (7S)—N-(2-Aminoethyl)-4-(1,2,3-benzothiadiazol-6-ylamino)-N-methyl-5,6,7,8-tetrahydro[1]benzothieno[2,3-d]pyrimidine-7-carboxamide]",3.2
21,"O=C([C@H]1CCc2c(sc3ncnc(Nc4ccc5nnsc5c4)c23)C1)N1CCC(F)(F)C1 [Example 17, [(7S)-4-(1,2,3-Benzothiadiazol-6-ylamino)-5,6,7,8-tetrahydro[1]benzothieno[2,3-d]pyrimidin-7-yl](3,3-difluoropyrrolidin-1-yl)methanone]",11
22,"COc1cc2nnsc2cc1Nc1ncnc2sc3c(c12)CC[C@H](C(=O)N(C)C(C)C)C3 [Example 37, (7S)-4-[(5-Methoxy-1,2,3-benzothiadiazol-6-yl)amino]-N-methyl-N-(propan-2-yl)-5,6,7,8-tetrahydro[1]benzothieno[2,3-d]pyrimidine-7-carboxamide]",1.2
